pIC50: −log10 of the molar value.
Each compound was assayed against T1, NLRP3 (Homo sapiens, UniProt Q96P20) (assay: IL-1β Secretion Assay (NLRP3-dependent IL1β secretion in THP1 cells)). Conditions: PMA-differentiated THP-1 cells; compounds incubated 20 h; 2.5 μM Nigericin 3 h; HTRF IL-1β readout; read-out: IC50 IL-1β Inhibition.
T1 construct: host or cells: THP-1 cells differentiated with PMA
Assay type: cell-based
Outline: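 IL-1β in conditioned media, measured by HTRF after 3 h 2.5 μM nigericin stimulation, gave % inhibition fitted logistically for IC50. Before that, PMA-differentiated (100 ng/mL, 24 h) THP-1 cells were preincubated 20 h with 7 compound concentrations (3-fold serial, DMSO 1:200).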

T1 sequence (Q96P20 whole entry): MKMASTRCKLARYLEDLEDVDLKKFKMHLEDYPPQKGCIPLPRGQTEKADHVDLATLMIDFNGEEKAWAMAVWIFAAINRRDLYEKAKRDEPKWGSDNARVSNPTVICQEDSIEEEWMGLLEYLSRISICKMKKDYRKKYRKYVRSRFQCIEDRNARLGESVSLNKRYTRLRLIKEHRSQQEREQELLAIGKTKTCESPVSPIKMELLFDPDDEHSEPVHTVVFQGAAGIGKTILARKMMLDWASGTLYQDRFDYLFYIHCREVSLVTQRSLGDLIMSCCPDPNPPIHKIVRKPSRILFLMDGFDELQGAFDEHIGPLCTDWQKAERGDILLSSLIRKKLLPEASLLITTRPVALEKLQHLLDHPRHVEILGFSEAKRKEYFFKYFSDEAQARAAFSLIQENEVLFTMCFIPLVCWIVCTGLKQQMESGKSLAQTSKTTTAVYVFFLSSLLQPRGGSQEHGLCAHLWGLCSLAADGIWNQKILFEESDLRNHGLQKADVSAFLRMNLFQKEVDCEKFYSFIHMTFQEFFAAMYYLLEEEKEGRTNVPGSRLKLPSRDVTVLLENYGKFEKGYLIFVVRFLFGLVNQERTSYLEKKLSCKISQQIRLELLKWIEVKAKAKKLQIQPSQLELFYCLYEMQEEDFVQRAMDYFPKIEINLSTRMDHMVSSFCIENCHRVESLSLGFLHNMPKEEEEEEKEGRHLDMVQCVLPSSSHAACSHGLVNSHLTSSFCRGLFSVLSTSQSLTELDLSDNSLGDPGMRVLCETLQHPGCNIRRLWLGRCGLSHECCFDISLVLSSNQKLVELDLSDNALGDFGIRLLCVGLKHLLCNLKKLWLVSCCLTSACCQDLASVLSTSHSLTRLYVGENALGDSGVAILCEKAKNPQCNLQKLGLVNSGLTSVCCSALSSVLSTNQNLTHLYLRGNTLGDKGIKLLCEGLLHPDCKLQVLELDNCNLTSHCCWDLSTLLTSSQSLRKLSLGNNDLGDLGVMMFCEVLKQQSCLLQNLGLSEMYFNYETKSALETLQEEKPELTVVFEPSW

Row | Compound | pIC50
1 | Cc1ccc(-c2nnc(N[C@@H]3CCCN(CCO)C3)n3cncc23)c(OC(F)(F)F)c1 [Compound 355, 2-[(3R)-3-({1-[4-methyl-2-(trifluoromethoxy)phenyl]imidazo[1,5-d][1,2,4]triazin-4-yl}amino)piperidin-1-yl]ethan-1-ol] | 7.00 to 8.00
2 | CCN1C[C@H](F)C[C@@H](Nc2nnc(-c3ccc(C(F)(F)F)cc3OC(F)F)c3cc(C)nn23)C1 [Compound 356, 4-[2-(difluoromethoxy)-4-(trifluoromethyl)phenyl]-N-[(3R,5R)-1-ethyl-5-fluoropiperidin-3-yl]-2-methylpyrazolo[1,5-d][1,2,4]triazin-7-amine] | > 9.00
3 | CCN1CCC[C@@H](Nc2nnc(-c3ccc(Br)cc3OC(F)(F)F)c3cc(C)nn23)C1 [Compound 357, 4-[4-bromo-2-(trifluoromethoxy)phenyl]-N-[(3R)-1-ethylpiperidin-3-yl]-2-methylpyrazolo[1,5-d][1,2,4]triazin-7-amine] | > 9.00
4 | Cc1cc2c(-c3ccc(Cl)cc3OC(F)F)nnc(N[C@@H]3CCCN(C)C3)n2n1 [Compound 358, 4-[4-chloro-2-(difluoromethoxy)phenyl]-2-methyl-N-[(3R)-1-methylpiperidin-3-yl]pyrazolo[1,5-d][1,2,4]triazin-7-amine] | > 9.00
5 | Cc1cc2c(-c3ccc(C(F)(F)F)cc3C(F)F)nnc(N[C@@H]3CCCN(C)C3)n2n1 [Compound 359, 4-[2-(difluoromethyl)-4-(trifluoromethyl)phenyl]-2-methyl-N-[(3R)-1-methylpiperidin-3-yl]pyrazolo[1,5-d][1,2,4]triazin-7-amine] | 8.00 to 9.00
6 | Cc1cc2c(-c3ccc(C4CC4)cc3OC(F)F)nnc(N[C@@H]3CCCN(C)C3)n2n1 [Compound 360, 4-[4-cyclopropyl-2-(difluoromethoxy)phenyl]-2-methyl-N-[(3R)-1-methylpiperidin-3-yl]pyrazolo[1,5-d][1,2,4]triazin-7-amine] | > 9.00
7 | Cc1ccc(-c2nnc(N[C@@H]3CCCN(C)C3)n3nc(C)cc23)c(OC(F)F)c1 [Compound 361, 4-[2-(difluoromethoxy)-4-methylphenyl]-2-methyl-N-[(3R)-1-methylpiperidin-3-yl]pyrazolo[1,5-d][1,2,4]triazin-7-amine] | 8.00 to 9.00
8 | Cc1cc2c(-c3ccc(Cl)cc3C(F)F)nnc(N[C@@H]3CCCN(C)C3)n2n1 [Compound 362, 4-[4-chloro-2-(difluoromethyl)phenyl]-2-methyl-N-[(3R)-1-methylpiperidin-3-yl]pyrazolo[1,5-d][1,2,4]triazin-7-amine] | 7.00 to 8.00
9 | Cc1cc2c(-c3ccc(C4CC4)cc3C(F)F)nnc(N[C@@H]3CCCN(C)C3)n2n1 [Compound 363, 4-[4-cyclopropyl-2-(difluoromethyl)phenyl]-2-methyl-N-[(3R)-1-methylpiperidin-3-yl]pyrazolo[1,5-d][1,2,4]triazin-7-amine] | 8.00 to 9.00
10 | Cc1ccc(-c2nnc(N[C@@H]3CCCN(C)C3)n3nc(C)cc23)c(C(F)F)c1 [Compound 364, 4-[2-(difluoromethyl)-4-methylphenyl]-2-methyl-N-[(3R)-1-methylpiperidin-3-yl]pyrazolo[1,5-d][1,2,4]triazin-7-amine] | 7.00 to 8.00
11 | CCN1CCC[C@@H](Nc2nnc(-c3ccc(C(F)(F)F)cc3OC(F)(F)F)c3cc(C)nn23)C1 [Compound 365, N-[(3R)-1-ethylpiperidin-3-yl]-2-methyl-4-[2-(trifluoromethoxy)-4-(trifluoromethyl)phenyl]pyrazolo[1,5-d][1,2,4]triazin-7-amine] | 8.00 to 9.00
12 | CCN1CCC[C@@H](Nc2nnc(-c3ccc(SC)cc3OC(F)(F)F)c3cc(C)nn23)C1 [Compound 366, N-[(3R)-1-ethylpiperidin-3-yl]-2-methyl-4-[4-(methylsulfanyl)-2-(trifluoromethoxy)phenyl]pyrazolo[1,5-d][1,2,4]triazin-7-amine] | 8.00 to 9.00
13 | CCN1CCC[C@@H](Nc2nnc(-c3ccc(C)cc3SC)c3cc(C)nn23)C1 [Compound 367, N-[(3R)-1-ethylpiperidin-3-yl]-2-methyl-4-[4-methyl-2-(methylsulfanyl)phenyl]pyrazolo[1,5-d][1,2,4]triazin-7-amine] | 8.00 to 9.00
14 | CCN1CCC[C@@H](Nc2nnc(-c3ccc(C)cc3S(C)(=O)=O)c3cc(C)nn23)C1 [Compound 368, N-[(3R)-1-ethylpiperidin-3-yl]-4-[2-(methanesulfonyl)-4-methylphenyl]-2-methylpyrazolo[1,5-d][1,2,4]triazin-7-amine] | 7.00 to 8.00
15 | CCN1CCC[C@@H](Nc2nnc(-c3ccc(S(C)(=O)=O)cc3OC(F)(F)F)c3cc(C)nn23)C1 [Compound 369, N-[(3R)-1-ethylpiperidin-3-yl]-4-[4-(methanesulfonyl)-2-(trifluoromethoxy)phenyl]-2-methylpyrazolo[1,5-d][1,2,4]triazin-7-amine] | 7.00 to 8.00
16 | CCN1CCC[C@@H](Nc2nnc(-c3ccc(OC)c(OC)c3OC)c3cc(C)nn23)C1 [Compound 370, N-[(3R)-1-ethylpiperidin-3-yl]-2-methyl-4-(2,3,4-trimethoxyphenyl)pyrazolo[1,5-d][1,2,4]triazin-7-amine] | 7.00 to 8.00

Row | Compound | pIC50
17 | CCN1CCC[C@@H](Nc2nnc(-c3ccc(OC)cc3OC(F)(F)F)c3cc(C)nn23)C1 [Compound 371, N-[(3R)-1-ethylpiperidin-3-yl]-4-[4-methoxy-2-(trifluoromethoxy)phenyl]-2-methylpyrazolo[1,5-d][1,2,4]triazin-7-amine] | 8.00 to 9.00
18 | CCN1CCC[C@@H](Nc2nnc(-c3ccc(C(F)(F)F)cc3C(N)=O)c3cc(C)nn23)C1 [Compound 372, 2-(7-{[(3R)-1-ethylpiperidin-3-yl]amino}-2-methylpyrazolo[1,5-d][1,2,4]triazin-4-yl)-5-(trifluoromethyl)benzamide] | 7.00 to 8.00
19 | CCN1CCC[C@@H](Nc2nnc(-c3ccc(OC)cc3C(F)(F)F)c3cc(C)nn23)C1 [Compound 373, N-[(3R)-1-ethylpiperidin-3-yl]-4-[4-methoxy-2-(trifluoromethyl)phenyl]-2-methylpyrazolo[1,5-d][1,2,4]triazin-7-amine] | > 9.00
20 | CCN1CCC[C@@H](Nc2nnc(-c3ccc(OC)cc3Cl)c3cc(C)nn23)C1 [Compound 374, 4-(2-chloro-4-methoxyphenyl)-N-[(3R)-1-ethylpiperidin-3-yl]-2-methylpyrazolo[1,5-d][1,2,4]triazin-7-amine] | 8.00 to 9.00
21 | CCN1CCC[C@@H](Nc2nnc(-c3ccc(C(F)(F)F)cc3Cl)c3cc(C)nn23)C1 [Compound 375, 4-[2-chloro-4-(trifluoromethyl)phenyl]-N-[(3R)-1-ethylpiperidin-3-yl]-2-methylpyrazolo[1,5-d][1,2,4]triazin-7-amine] | 8.00 to 9.00
22 | CCN1CCC[C@@H](Nc2nnc(-c3ccc(Cl)cc3Cl)c3cc(C)nn23)C1 [Compound 376, 4-(2,4-dichlorophenyl)-N-[(3R)-1-ethylpiperidin-3-yl]-2-methylpyrazolo[1,5-d][1,2,4]triazin-7-amine] | 8.00 to 9.00
23 | CCN1CCC[C@@H](Nc2nnc(-c3ccc(Cl)cc3)c3cc(C)nn23)C1 [Compound 377, 4-(4-chlorophenyl)-N-[(3R)-1-ethylpiperidin-3-yl]-2-methylpyrazolo[1,5-d][1,2,4]triazin-7-amine] | 8.00 to 9.00
24 | CCN1CCC[C@@H](Nc2nnc(-c3ccc(C#N)cc3OC(F)F)c3cc(C)nn23)C1 [Compound 378, 3-(difluoromethoxy)-4-(7-{[(3R)-1-ethylpiperidin-3-yl]amino}-2-methylpyrazolo[1,5-d][1,2,4]triazin-4-yl)benzonitrile] | 8.00 to 9.00
25 | CCN1CCC[C@@H](Nc2nnc(-c3ccc(OC)cc3C3CC3)c3cc(C)nn23)C1 [Compound 379, 4-(2-cyclopropyl-4-methoxyphenyl)-N-[(3R)-1-ethylpiperidin-3-yl]-2-methylpyrazolo[1,5-d][1,2,4]triazin-7-amine] | 8.00 to 9.00
26 | Cc1cc2c(-c3ccc(C(F)(F)F)cc3OC(F)F)nnc(N[C@H]3C[C@@](C)(O)C3)n2n1 [Compound 380, (1s,3s)-3-({4-[2-(difluoromethoxy)-4-(trifluoromethyl)phenyl]-2-methylpyrazolo[1,5-d][1,2,4]triazin-7-yl}amino)-1-methylcyclobutan-1-ol] | 8.00 to 9.00
27 | Cc1cc2c(-c3ccc(C(F)(F)F)cc3OC(F)F)nnc(N[C@@H]3CCCC[C@H]3O)n2n1 [Compound 381, (1R,2R)-2-({4-[2-(difluoromethoxy)-4-(trifluoromethyl)phenyl]-2-methylpyrazolo[1,5-d][1,2,4]triazin-7-yl}amino)cyclohexan-1-ol] | 7.00 to 8.00
28 | Cc1cc2c(-c3ccc(C(F)(F)F)cc3OC(F)(F)F)nnc(N[C@@H]3CCCC[C@H]3O)n2n1 [Compound 382, (1R,2R)-2-({2-methyl-4-[2-(trifluoromethoxy)-4-(trifluoromethyl)phenyl]pyrazolo[1,5-d][1,2,4]triazin-7-yl}amino)cyclohexan-1-ol] | 7.00 to 8.00
29 | Cc1cc2c(-c3ccc(C(F)(F)F)cc3OC(F)F)nnc(NC(C)c3cccc(O)c3)n2n1 (stereo not shown) [Compound 383, 3-[1-({4-[2-(difluoromethoxy)-4-(trifluoromethyl)phenyl]-2-methylpyrazolo[1,5-d][1,2,4]triazin-7-yl}amino)ethyl]phenol] | 8.00 to 9.00
30 | COc1ccc(-c2nnc(N[C@@H]3CCOC[C@H]3O)n3nc(C)cc23)c(CC(F)(F)F)c1 [Compound 384, (3S,4R)-4-({4-[4-methoxy-2-(2,2,2-trifluoroethyl)phenyl]-2-methylpyrazolo[1,5-d][1,2,4]triazin-7-yl}amino)oxan-3-ol] | 8.00 to 9.00
31 | COc1ccc(-c2nnc(N[C@@H]3CCCC[C@H]3O)n3nc(C)cc23)c(CC(F)(F)F)c1 [Compound 385, (1R,2R)-2-({4-[4-methoxy-2-(2,2,2-trifluoroethyl)phenyl]-2-methylpyrazolo[1,5-d][1,2,4]triazin-7-yl}amino)cyclohexan-1-ol] | 8.00 to 9.00

From US20250179078A1, “INHIBITORS OF NLRP3” (PTC THERAPEUTICS, INC., priority 2022, published 2025)
